In US5616556A, “Method of treating rheumatoid arthritis and osteoarthrosis using tetrahydro WS9326A” (Fujisawa Pharmaceutical Co., Ltd., priority 1990, dated 1997):
Starred links: 1 amine or outer side, 2 acyl side, 3 side chain; linkers in the order of their positions; H or OH if unused. Positions of bridges follow the written chain, without caps; N, C: chain ends. Non-standard residues stand in square brackets, D forms with d. Residues, ends and D or L forms follow the SMILES beside them. *: point of attachment. X2 = CN(/C(=C/c1ccc(O)cc1)C(=O)[*:2])[*:1]; aThr = C[C@H](O)[C@H](N)C(=O)O; X1 = CCCCCc1ccccc1CCC(=O)*

Experiments:
rabbits = settings: rabbit, in vivo, 8 mg/kg
Experimental: (§1) An injectable suspension containing the test compound and other ingredients mentioned below was administered into the knee joint of rabbits (6 males and 6 females) and dogs (3 males and 3 females) twice a week for 4 weeks. The dose was 8 mg/kg for rabbits and 12 mg/kg for dogs.

dogs = settings: dog, in vivo, 12 mg/kg
Experimental: as §1

**Q.** With `CCCCCc1ccccc1CCC(=O)N[C@@H]1C(=O)N(C)/C(=C/c2ccc(O)cc2)C(=O)N[C@@H](CC(C)C)C(=O)N[C@H](Cc2ccccc2)C(=O)N[C@@H]([C@H](C)O)C(=O)N[C@@H](CC(N)=O)C(=O)N[C@@H](CO)C(=O)O[C@@H]1C` [tetrahydro-WS9326A] (X1-T[X2]L[dF][aThr]NS; ester 1-C) as the compound, how does the death (rabbits) read?
**A.** Its death is “caused death in neither rabbits nor dogs”.

**Q.** What about the death (dogs) of the same compound?
**A.** The death was “caused death in neither rabbits nor dogs”.
